What all share (type): in vivo
For data set [1], the system named is microRNA-708. Nature of the data set: Obesity level of HFD-fed obese mice treated with antisense nucleic acid of microRNA-708. Conditions: 2-month old obese mice fed with HFD for two months; subcutaneously injected at 10 D/g weekly for four weeks; FIG. 13. An excerpt: (§1) A designed RNA sequence ([…] (SEQ ID NO: 2)), reverse complementary to microRNA-708, was subcutaneously injected at 10 D/g to 2-month old obese mice (fed with HFD for two months) weekly for four weeks.

The test system of data set [2] is microRNA-708. In words: Insulin tolerance test (ITT) in obese mice treated with antisense nucleic acid of microRNA-708. The following applies: 2-month old obese mice fed with HFD for two months; subcutaneously injected at 10 D/g weekly for four weeks; FIG. 15. How it is done: (§2) As obesity is closely related to type II diabetes, the present inventors also examined the role of microRNA-708 in insulin sensitivity, where insulin tolerance test (ITT) and glucose tolerance test (GTT) were adopted. ITTs of the microRNA-708 knockout mice were assayed 0, 15, 30, 60, and 90 min after an intraperitoneal injection of insulin (diluted as 0.5 U/ml in saline and dosed at 0.5-1.2 U insulin per kg body mass, e.g., 0.5 U insulin per kg body mass, […]) following a 4 h fast. GTTs of the microRNA-708 knockout mice were assayed 0, 15, 30, 60, and 90 min after an intraperitoneal injection of glucose (diluted as 20% glucose solution in saline and dosed at 0.5-2 g glucose per kg body mass, e.g., 1 g glucose per kg body mass) following overnight fast.
as §1

In data set [3] the test system is microRNA-708. Nature of the data set: Glucose tolerance test (GTT) in obese mice treated with antisense nucleic acid of microRNA-708. The following applies: obese mice treated with antisense nucleic acids; FIG. 14. How it is done: as §2, §1

On to CCCAGCUAGACUUGUAAGUCCUU [SEQ ID NO: 2], for which the obesity levels entry in the data set with microRNA-708 [1] is “declined distinctly”. Further, in the data set with microRNA-708 [2], the “insulin tolerance symptoms (insulin resistance)” value is “significantly alleviated”. Besides, the glucose tolerance entry in the data set on microRNA-708 [3] is given as “obvious relieved”.

These data come from patent US20200370045A1, “METHOD OF TREATING TYPE II DIABETES AND OBESITY AND METHOD OF SCREENING A MEDICAMENT FOR THE SAME” (Tsinghua University, priority 2017, published 2020).
